{"source": "patent US4442044A", "about": "“Process for preparing monoesters and diesters of N-alkyl substituted amino methyl phosphonic acid” (priority 1983, dated 1984)", "experiment_in_all_cases": "post-emergent herbicidal activity, greenhouse", "format_in_all_cases": "in vivo", "key": {"Crabgrass": {"system": "Crabgrass", "details": "Table II", "how_it_was_run": "(§1)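 Post-emergence foliar spray at tabulated application rates, using aliquots of a 1.0% stock in acetone, THF or water plus ~0.4% emulsifier, applied to 2–3-week-old greenhouse plants. Plant injury was rated relative to controls roughly two and four weeks after treatment.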"}, "Rice": {"system": "Rice", "details": "Table II", "how_it_was_run": "as §1"}, "Panicum Spp": {"system": "Panicum Spp", "details": "Table II", "how_it_was_run": "as §1"}, "Smartweed": {"system": "Smartweed", "how_it_was_run": "as §1"}, "Quackgrass": {"system": "Quackgrass", "details": "Table I, 4 WAT", "how_it_was_run": "as §1"}, "Sorghum": {"system": "Sorghum", "details": "Table II", "how_it_was_run": "as §1"}, "Canada Thistle": {"system": "Canada Thistle", "details": "Table I, 4 WAT", "how_it_was_run": "as §1"}, "Morningglory": {"system": "Morningglory", "how_it_was_run": "as §1"}, "Wild Buckwheat": {"system": "Wild Buckwheat", "details": "Table II", "how_it_was_run": "as §1"}, "Yellow Nutsedge": {"system": "Yellow Nutsedge", "details": "Table I, 4 WAT", "how_it_was_run": "as §1"}, "Johnsongrass": {"system": "Johnsongrass", "details": "Table I, 4 WAT", "how_it_was_run": "as §1"}, "Barnyardgrass": {"system": "Barnyardgrass", "how_it_was_run": "as §1"}, "Sugar Beet": {"system": "Sugar Beet", "details": "Table II", "how_it_was_run": "as §1"}, "Downy Brome": {"system": "Downy Brome", "how_it_was_run": "as §1"}, "Soybean": {"system": "Soybean", "details": "Table II", "how_it_was_run": "as §1"}, "Wheat": {"system": "Wheat", "details": "Table II", "how_it_was_run": "as §1"}, "Velvetleaf": {"system": "Velvetleaf", "how_it_was_run": "as §1"}, "Cocklebur": {"system": "Cocklebur", "how_it_was_run": "as §1"}, "Hemp Sesbania": {"system": "Hemp Sesbania", "details": "Table II", "how_it_was_run": "as §1"}, "Lambsquarters": {"system": "Lambsquarters", "how_it_was_run": "as §1"}}, "data": [{"compound": "CCOC(=O)CNCP(=O)(O)OC(C)C(=O)OC", "note": "(stereo not drawn) [Example 28, propanoic acid, 2-[[[[(2-ethoxy-2-oxoethyl)amino]methyl]hydroxyphosphinyl]oxy]-, methyl ester]", "values": [{"measurement": "post-emergent herbicidal activity index", "setting": "Crabgrass; 2 WAT, 1.12 kg/h", "value": "2 (50-74% control)"}, {"measurement": "post-emergent herbicidal activity index", "setting": "Crabgrass; 4 WAT, 5.6 kg/h", "value": "3 (75-99% control)"}, {"measurement": "post-emergent herbicidal activity index", "setting": "Rice; 2 WAT, 1.12 kg/h", "value": "0 (0-24% control)"}, {"measurement": "post-emergent herbicidal activity index", "setting": "Rice; 4 WAT, 5.6 kg/h", "value": "2 (50-74% control)"}, {"measurement": "post-emergent herbicidal activity index", "setting": "Panicum Spp; 2 WAT, 1.12 kg/h", "value": "0 (0-24% control)"}, {"measurement": "post-emergent herbicidal activity index", "setting": "Panicum Spp; 4 WAT, 5.6 kg/h", "value": "2 (50-74% control)"}, {"measurement": "post-emergent herbicidal activity index", "setting": "Smartweed; Table I, 4 WAT, 5.6 kg/h", "value": "0 (0-24% control)"}, {"measurement": "post-emergent herbicidal activity index", "setting": "Smartweed; Table I, 4 WAT, 11.2 kg/h", "value": "3 (75-99% control)"}, {"measurement": "post-emergent herbicidal activity index", "setting": "Smartweed; Table II, 2 WAT, 1.12 kg/h", "value": "0 (0-24% control)"}, {"measurement": "post-emergent herbicidal activity index", "setting": "Smartweed; Table II, 4 WAT, 5.6 kg/h", "value": "1 (25-49% control)"}, {"measurement": "post-emergent herbicidal activity index", "setting": "Quackgrass; 5.6 kg/h", "value": "0 (0-24% control)"}, {"measurement": "post-emergent herbicidal activity index", "setting": "Quackgrass; 11.2 kg/h", "value": "2 (50-74% control)"}, {"measurement": "post-emergent herbicidal activity index", "setting": "Sorghum; 2 WAT, 1.12 kg/h", "value": "0 (0-24% control)"}, {"measurement": "post-emergent herbicidal activity index", "setting": "Sorghum; 4 WAT, 5.6 kg/h", "value": "2 (50-74% control)"}, {"measurement": "post-emergent herbicidal activity index", "setting": "Canada Thistle; 5.6 kg/h", "value": "1 (25-49% control)"}, {"measurement": "post-emergent herbicidal activity index", "setting": "Canada Thistle; 11.2 kg/h", "value": "1 (25-49% control)"}, {"measurement": "post-emergent herbicidal activity index", "setting": "Morningglory; Table I, 4 WAT, 5.6 kg/h", "value": "1 (25-49% control)"}, {"measurement": "post-emergent herbicidal activity index", "setting": "Morningglory; Table I, 4 WAT, 11.2 kg/h", "value": "3 (75-99% control)"}, {"measurement": "post-emergent herbicidal activity index", "setting": "Morningglory; Table II, 2 WAT, 1.12 kg/h", "value": "1 (25-49% control)"}, {"measurement": "post-emergent herbicidal activity index", "setting": "Morningglory; Table II, 4 WAT, 5.6 kg/h", "value": "2 (50-74% control)"}, {"measurement": "post-emergent herbicidal activity index", "setting": "Wild Buckwheat; 2 WAT, 1.12 kg/h", "value": "0 (0-24% control)"}, {"measurement": "post-emergent herbicidal activity index", "setting": "Wild Buckwheat; 4 WAT, 5.6 kg/h", "value": "0 (0-24% control)"}, {"measurement": "post-emergent herbicidal activity index", "setting": "Yellow Nutsedge; 5.6 kg/h", "value": "1 (25-49% control)"}, {"measurement": "post-emergent herbicidal activity index", "setting": "Yellow Nutsedge; 11.2 kg/h", "value": "3 (75-99% control)"}, {"measurement": "post-emergent herbicidal activity index", "setting": "Johnsongrass; 5.6 kg/h", "value": "2 (50-74% control)"}, {"measurement": "post-emergent herbicidal activity index", "setting": "Johnsongrass; 11.2 kg/h", "value": "3 (75-99% control)"}, {"measurement": "post-emergent herbicidal activity index", "setting": "Barnyardgrass; Table I, 4 WAT, 5.6 kg/h", "value": "2 (50-74% control)"}, {"measurement": "post-emergent herbicidal activity index", "setting": "Barnyardgrass; Table I, 4 WAT, 11.2 kg/h", "value": "2 (50-74% control)"}, {"measurement": "post-emergent herbicidal activity index", "setting": "Barnyardgrass; Table II, 2 WAT, 1.12 kg/h", "value": "1 (25-49% control)"}, {"measurement": "post-emergent herbicidal activity index", "setting": "Barnyardgrass; Table II, 4 WAT, 5.6 kg/h", "value": "3 (75-99% control)"}, {"measurement": "post-emergent herbicidal activity index", "setting": "Sugar Beet; 2 WAT, 1.12 kg/h", "value": "0 (0-24% control)"}, {"measurement": "post-emergent herbicidal activity index", "setting": "Sugar Beet; 4 WAT, 5.6 kg/h", "value": "0 (0-24% control)"}, {"measurement": "post-emergent herbicidal activity index", "setting": "Downy Brome; Table I, 4 WAT, 5.6 kg/h", "value": "1 (25-49% control)"}, {"measurement": "post-emergent herbicidal activity index", "setting": "Downy Brome; Table I, 4 WAT, 11.2 kg/h", "value": "1 (25-49% control)"}, {"measurement": "post-emergent herbicidal activity index", "setting": "Downy Brome; Table II, 2 WAT, 1.12 kg/h", "value": "0 (0-24% control)"}, {"measurement": "post-emergent herbicidal activity index", "setting": "Downy Brome; Table II, 4 WAT, 5.6 kg/h", "value": "0 (0-24% control)"}, {"measurement": "post-emergent herbicidal activity index", "setting": "Soybean; 2 WAT, 1.12 kg/h", "value": "1 (25-49% control)"}, {"measurement": "post-emergent herbicidal activity index", "setting": "Soybean; 4 WAT, 5.6 kg/h", "value": "1 (25-49% control)"}, {"measurement": "post-emergent herbicidal activity index", "setting": "Wheat; 2 WAT, 1.12 kg/h", "value": "0 (0-24% control)"}, {"measurement": "post-emergent herbicidal activity index", "setting": "Wheat; 4 WAT, 5.6 kg/h", "value": "1 (25-49% control)"}, {"measurement": "post-emergent herbicidal activity index", "setting": "Velvetleaf; Table I, 4 WAT, 5.6 kg/h", "value": "0 (0-24% control)"}, {"measurement": "post-emergent herbicidal activity index", "setting": "Velvetleaf; Table I, 4 WAT, 11.2 kg/h", "value": "2 (50-74% control)"}, {"measurement": "post-emergent herbicidal activity index", "setting": "Velvetleaf; Table II, 2 WAT, 1.12 kg/h", "value": "0 (0-24% control)"}, {"measurement": "post-emergent herbicidal activity index", "setting": "Velvetleaf; Table II, 4 WAT, 5.6 kg/h", "value": "0 (0-24% control)"}, {"measurement": "post-emergent herbicidal activity index", "setting": "Cocklebur; Table I, 4 WAT, 5.6 kg/h", "value": "1 (25-49% control)"}, {"measurement": "post-emergent herbicidal activity index", "setting": "Cocklebur; Table I, 4 WAT, 11.2 kg/h", "value": "2 (50-74% control)"}, {"measurement": "post-emergent herbicidal activity index", "setting": "Cocklebur; Table II, 2 WAT, 1.12 kg/h", "value": "0 (0-24% control)"}, {"measurement": "post-emergent herbicidal activity index", "setting": "Cocklebur; Table II, 4 WAT, 5.6 kg/h", "value": "2 (50-74% control)"}, {"measurement": "post-emergent herbicidal activity index", "setting": "Hemp Sesbania; 2 WAT, 1.12 kg/h", "value": "0 (0-24% control)"}, {"measurement": "post-emergent herbicidal activity index", "setting": "Hemp Sesbania; 4 WAT, 5.6 kg/h", "value": "3 (75-99% control)"}, {"measurement": "post-emergent herbicidal activity index", "setting": "Lambsquarters; Table I, 4 WAT, 5.6 kg/h", "value": "0 (0-24% control)"}, {"measurement": "post-emergent herbicidal activity index", "setting": "Lambsquarters; Table I, 4 WAT, 11.2 kg/h", "value": "3 (75-99% control)"}, {"measurement": "post-emergent herbicidal activity index", "setting": "Lambsquarters; Table II, 2 WAT, 1.12 kg/h", "value": "0 (0-24% control)"}, {"measurement": "post-emergent herbicidal activity index", "setting": "Lambsquarters; Table II, 4 WAT, 5.6 kg/h", "value": "1 (25-49% control)"}]}]}
